Data from US7589122B2, “Method for soybean aphid population suppression and monitoring using aphid- and host-plant-associated semiochemical compositions” (MSTRS Technologies, Inc., priority 2004, dated 2009).

Tests used:
[1] = system: antennae of winged soybean aphids, Aphis glycines; assay: EAG responses of winged soybean aphids to soybean associated volatile compounds; conditions: relative to the control (FIG. 3)
Source text: FIG. 3 is a graph of EAG responses of winged soybean aphids, Aphis glycines, to some soybean associated volatile compounds.
EAG responses of soybean aphids to soybean plant volatiles and their attractiveness in the field. […] All other compounds elicited EAG responses seemed not to be attractive to winged aphids relative to the control.

syrphids = assay: Field trapping of predatory insects with attractant compounds: syrphids; format: in vivo, Syrphidae (syrphids); conditions: 100 mg bait, Iowa soybean field 2003 (FIG. 7)
Method: (§1) FIG. 7 is a graph of the mean number of predatory insects caught in traps baited with 100 mg of methyl salicylate and 2-phenylethanol, and the control from an Iowa soybean field in 2003.
(§2) Field Test. Field trapping tests were conducted in soybean field from 2002 to 2003 (Ames, Iowa). Synthetic compounds at a dose of 100 mg (for plant volatiles) and 10 mg for soybean aphid pheromones were prepared in either hexane or methylene chloride or ether. Medical peerless cotton rolls (5 cm long, 100% cotton) were used as dispensers for loading plant volatiles, and borosilicate glass vials (Chromal) were housed for pheromones. Two trap designs were used, and the first type is similar to that described in Zhu et al., (1999), and the second one is the most common trap used for aphid trapping, the water trap. The trap was hung from bamboo stakes, 1.2 m above the ground. Within a replicate (N=5-6), traps were set at least 10 m apart. The traps were checked daily, and trap position within a series was randomized to minimize the effects of habitat heterogeneity.

winged soybean aphids = assay: Field trapping of winged soybean aphids with selected soybean volatile compounds; format: in vivo, Aphis glycines; conditions: traps baited with synthetic soybean volatile, 100 mg, soybean field (FIG. 4)
Method: FIG. 4 is a graph of the number of winged soybean aphids caught per trap baited with some selected soybean volatile compounds (synthetic) in the soybean field.
as §2

[2] = system: Coccinella septempunctata; assay: Field trapping of predatory insects with attractant compounds: Coccinella septempunctata; format: in vivo; conditions: 100 mg bait, Iowa soybean field 2003 (FIG. 7)
Method: as §1
FIG. 8 is a graph of the mean number of Coccinella septempunctata caught in traps baited with different doses of methyl salicylate from an Iowa soybean field in 2004.
as §2

Harmonia axyridis = assay: Field trapping of predatory insects with attractant compounds: Harmonia axyridis; format: in vivo; conditions: 100 mg bait, vs control (FIG. 7)
Method: as §1, §2

[3] = system: soybean aphids on soybean plants; assay: Caged greenhouse experiment: effect of methyl salicylate on soybean aphid colonizing and growth; format: in vivo, Aphis glycines
Method: The effect of Methyl salicylate on soybean aphid growth. This experiment was conducted in the green house, where cages of soybean plants treated with dispensers loaded 4 g of synthetic methyl salicylate. Newly emerged winged soybean aphids on one cut-soybean leaf (dried) were placed in the middle of the cage, which is 30 cm away from the potted soybean plants (V2 stage) with or without treatment of methyl salicylate. For plants treated with methyl salicylate, the cotton roll was placed in the center of the plant, and was replaced with a newly loaded one after one week. The number of winged aphids on each plant were counted 2 hours after introducing the winged aphids, and continued for a week. The number of wingless soybean aphids produced from those landed winged aphids was also counted everyday for about two weeks.

[4] = system: male and gynoparous female soybean aphids; assay: Field trapping of male and gynoparous soybean aphids with synthetic sex pheromone lures; format: in vivo, Aphis glycines; conditions: synthetic pheromone lures 10 mg, soybean fields (FIG. 12)
Method: FIG. 16 is a graph of mean number of winged soybean aphids caught in water traps baited with different combinations of catnip oil and the two pheromone compounds (n=5, columns with no letters in common are significant different, ANOVA followed by FPLSD test, P<0.05)
as §2

[5] = system: gynoparous female antennae of soybean aphids; assay: EAG dose-response of gynoparous female soybean aphid antennae to synthetic pheromone compounds; design: species or system Aphis glycines; conditions: when pheromone exceeded a 1 mg dosage (FIG. 11 lower)
Source text: FIG. 11 is two graphs of EAG dose-response curves from male (upper part) and gynoparous female antennae (lower part) of soybean aphids to synthetic pheromone candidate compounds (n=4; different letters within a series indicate significant differences, ANOVA followed by FPLSD test, P<0.05)
EAG dose-responses of male and gynoparous soybean aphids to the identified sex pheromone compounds.

Compound: OCCc1ccccc1 [2-phenylethanol]
- EAG responses of winged soybean aphids [1]: significantly stronger than the control
- attraction of syrphids to baited traps (syrphids): strongest attraction

Compound: CC(=O)CCC=C(C)C [6-methyl-5-hepten-2-one]
- EAG responses of winged soybean aphids [1]: significantly stronger than the control

Compound: CCC/C=C/C=O [(E)-2 hexenal]
- EAG responses of winged soybean aphids [1]: highest response

Compound: CC/C=C\CCO [(Z)-3 Hexenol]
- EAG responses of winged soybean aphids [1]: significantly stronger than the control

Compound: CC/C=C\CCOC(C)=O [(Z)-3 hexenyl acetate]
- EAG responses of winged soybean aphids [1]: significantly stronger than the control

Compound: O=Cc1ccccc1 [benzaldehyde]
- EAG responses of winged soybean aphids [1]: significantly stronger than the control
- number of winged soybean aphids caught per trap (winged soybean aphids): caught the most

Compound: C=CC(C)(O)CCC=C(C)C (stereo not shown) [linalool]
- EAG responses of winged soybean aphids [1]: significantly stronger than the control

Compound: COC(=O)c1ccccc1O [methyl salicylate]
- attraction of adults of Coccinella septempunctata to baited traps [2]: significantly attractive
- number of Harmonia axyridis caught in baited traps (Harmonia axyridis): not significantly differed from the control
- EAG responses of winged soybean aphids [1]: significantly stronger than the control
- attraction of syrphids to baited traps (syrphids): attracted to some syrphids
- growth of wingless soybean aphids on soybean leaves ([3]; caged potted soybean plants treated vs untreated (FIG. 17 lower)): suppress the growth
- soybean aphid colonizing on soybean plants (winged aphids found on potted plants) ([3]; caged potted soybean plants treated vs untreated (FIG. 17 upper)): significantly reducing

Compound: CC1=CO[C@@H](O)[C@H]2[C@@H]1CC[C@@H]2C [nepetalactol, (1R,4aS,7S,7aR)-nepetalactol]
- number of male and gynoparous soybean aphids caught in traps [4]: Significantly lower catches

Compound: CC1=COC(=O)[C@H]2[C@@H]1CC[C@@H]2C [nepetalactone, (4aS,7S,7aR)-nepetalactone]
- EAG response of gynoparous female antennae [5]: higher EAG response
- number of male and gynoparous soybean aphids caught in traps [4]: Significantly lower catches

Compound: C=CC(C)=CCC=C(C)C [ocimene]
- EAG responses of winged soybean aphids [1]: significantly stronger than the control
